Patent US11518779B2, “Inhibitors of DNMT1 as anticancer therapeutic agents” (Victoria Link Limited, priority 2018, dated 2022)

The compounds below were run against DNMT1 (Homo sapiens, UniProt P26358) (assay: DNMT1 inhibition assay (transfer of radioactivity from [Me-3H]-SAM to hemimethylated double-stranded DNA)). Conditions: 100 nM DNMT1, 1 μM [Me-3H]-SAM, 1 μM 26 bp hemimethylated DNA substrate, 37° C., 2 hours.
Type: biochemical
Text: Human DNMT1 C-terminal catalytic domain gene was codon-optimised for E. coli by DNA2.0. The gene was cloned into the pD431-SR vector, KanR resistance, inducible by IPTG. The codon-optimisation gave yields 5 to 10 times greater than previously published reports (e.g. Song, J., Rechkoblit, O., Bestor, T. H., and Patel, D. J., (2011) Science 331(6020): 1036-1040; and Song, 3., Teplova, M., Ishibe-Murakami, S., and Patel, D. J., (2012) Science 335(6069): 709-712). The protein construct has N-terminal His-tag, a SUMO tag, a SUMO protease cleavage site, and the DNMT-catalytic domain.
DNMT1 inhibitors were assayed by measuring the transfer of radioactivity from tritiated S-adenosylmethionine (SAM) to double-stranded DNA (Du, Q., Z. Wang, Z., and Schramm, V. L., Proc. Natl. Acad. Sci. USA, 2016, 113, 2916-2921). The double stranded DNA molecule contains exactly one hemimethylated CpG located in the centre of the sequence. The design allows one methylation occurrence per DNA molecule, preventing any processive methylation along or across the strand.
[Me-^3H] S-Adenosyl methionine ([Me-^3H]-SAM) was enzymatically synthesized using bacterial chlorinase (SaIL) enzyme (Nat Chem Biol. 2008 Jan.; 4 (1):69-74. Epub 2007 Dec. 2. Discovery and characterization of a marine bacterial SAM-dependent chlorinase. Eustáquio AS^1, Pojer F, Noel J P, Moore B S.), starting from 5′-Chloro-5′-deoxyadenosine and L-[Methyl-^3H]-Methionine (Org Biomol Chem. 2016 Jul. 14; 14(26):6189-92. doi: 10.1039/c6ob00844e. Epub 2016 Jun. 6. Chemoenzymatic synthesis and utilization of a SAM analog with an isomorphic nucleobase. Vranken C^1, Fin A, Tufar P, Hofkens J, Burkart M D, Tor Y.). A reaction (500 μL) containing 500 μCi L-[Methyl-3H]-Methionine (PerkinElmer), 0.3 mM unlabeled methionine, 1 mM 5′-Chloro-5′-deoxyadenosine, 50 mM phosphate buffer pH 7.6 and 20 μM SaIL enzyme was incubated at room temperature. After 2 hours of incubation, reaction was stopped using 50 mM sulfuric acid. The [Me-^3H]-SAM was purified using C-18 reverse-phase HPLC using a gradient (buffer A: 50 mM ammonium acetate pH 4.3; buffer B: 0.1% acetic acid and 50% acetonitrile). The fractions containing [Me-^3H]-SAM were pooled and lyophilized overnight. Purified [Me-^3H]-SAM was always kept frozen at −80° C. until further use.
The DNMT1 assays were carried to determine the IC50 with transition state analogs. The reaction (100 μL) containing 50 mM Tris-HCl pH 8.0, 100 mM KCl, 50 ug/mL BSA, 2 mM DTT, 1 μM freshly prepared [Me-3H]-SAM, 1 μM 26 bp hemimethylated DNA substrate and varying concentrations of each inhibitor ([…]), incubated at 37° C. with 100 nM DNMT1. The reaction fractions (50 μL) were taken at 2 hours. The methylated DNA was purified by using Micro Bio-spin P-30 columns (Bio-Rad). Purified samples were mixed with 10 mL of scintillation liquid (PerkinElmer), and counted for radioactivity in a Tricarb 2910 TR scintillation counter (PerkinElmer). The values obtained in the absence of DNMT1 in the reaction were used as controls. The assay data were analyzed using GraphPad Prism for IC50 calculations. The hemimethylated DNA sequences used in the assays contained 26 bp, as follows: 26a oligo 5′-[…]-3′ [SEQ ID No. 1], and 26bm oligo 5′-ACTCATACCAAT/iMe-dC/GATACCAAGGTAG-3′ [SEQ ID No. 2], where iMe-dC is a 5-methyl-C base.
IC50 values were obtained from plots of percent inhibition versus inhibitor concentration.

Chain of DNMT1 (P26358 whole entry, looked up): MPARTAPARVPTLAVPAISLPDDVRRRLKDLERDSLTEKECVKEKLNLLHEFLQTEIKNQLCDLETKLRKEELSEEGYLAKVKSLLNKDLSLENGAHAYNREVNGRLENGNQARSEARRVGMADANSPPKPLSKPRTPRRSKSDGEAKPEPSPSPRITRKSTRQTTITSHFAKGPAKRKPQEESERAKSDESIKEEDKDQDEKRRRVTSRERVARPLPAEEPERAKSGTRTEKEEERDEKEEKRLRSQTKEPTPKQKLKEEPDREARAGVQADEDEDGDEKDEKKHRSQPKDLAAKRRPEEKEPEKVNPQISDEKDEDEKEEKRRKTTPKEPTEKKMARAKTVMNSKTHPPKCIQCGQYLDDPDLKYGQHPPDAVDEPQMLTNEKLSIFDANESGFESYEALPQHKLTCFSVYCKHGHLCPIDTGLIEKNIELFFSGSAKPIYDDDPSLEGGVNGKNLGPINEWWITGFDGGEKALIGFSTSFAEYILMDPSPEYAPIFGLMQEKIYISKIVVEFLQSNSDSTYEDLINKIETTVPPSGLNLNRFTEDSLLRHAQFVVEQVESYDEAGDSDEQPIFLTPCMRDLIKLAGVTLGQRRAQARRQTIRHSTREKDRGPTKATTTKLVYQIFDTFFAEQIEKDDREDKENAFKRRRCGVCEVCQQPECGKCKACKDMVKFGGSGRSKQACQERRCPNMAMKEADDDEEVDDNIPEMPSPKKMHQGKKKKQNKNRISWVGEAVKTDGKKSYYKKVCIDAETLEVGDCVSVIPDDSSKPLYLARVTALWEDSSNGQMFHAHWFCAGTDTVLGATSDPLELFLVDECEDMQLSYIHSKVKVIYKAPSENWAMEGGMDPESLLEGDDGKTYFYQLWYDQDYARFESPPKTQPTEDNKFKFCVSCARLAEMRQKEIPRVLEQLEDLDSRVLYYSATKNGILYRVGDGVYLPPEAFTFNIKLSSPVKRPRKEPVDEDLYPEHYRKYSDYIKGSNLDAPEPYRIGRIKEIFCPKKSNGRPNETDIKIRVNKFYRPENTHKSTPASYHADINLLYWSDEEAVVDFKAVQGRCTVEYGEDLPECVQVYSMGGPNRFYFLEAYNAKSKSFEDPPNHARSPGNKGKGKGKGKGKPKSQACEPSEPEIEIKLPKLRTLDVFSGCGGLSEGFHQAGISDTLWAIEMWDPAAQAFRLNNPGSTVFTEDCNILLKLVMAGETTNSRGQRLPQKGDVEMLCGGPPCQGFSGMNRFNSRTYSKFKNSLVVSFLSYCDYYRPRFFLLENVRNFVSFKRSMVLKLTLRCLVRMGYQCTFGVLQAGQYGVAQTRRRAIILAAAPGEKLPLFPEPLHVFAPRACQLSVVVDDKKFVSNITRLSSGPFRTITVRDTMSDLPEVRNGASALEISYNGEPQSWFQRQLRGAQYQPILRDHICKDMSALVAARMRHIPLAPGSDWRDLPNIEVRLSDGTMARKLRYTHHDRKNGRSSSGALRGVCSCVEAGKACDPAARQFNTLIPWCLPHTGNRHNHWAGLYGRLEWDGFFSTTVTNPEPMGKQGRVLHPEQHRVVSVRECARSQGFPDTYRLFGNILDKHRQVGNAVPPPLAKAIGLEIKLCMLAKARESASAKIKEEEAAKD

IC50 | SMILES
0.8 ± 0.1 µM | Nc1nc(=O)n(C2C[C@H](O)[C@@H](CO)O2)cc1CCCN(CC[C@H](N)C(=O)O)C[C@H]1O[C@@H](n2cnc3c(N)ncnc32)[C@H](O)[C@@H]1O (stereo in doubt) [Compound 33, (S)-2-amino-4-((3-(4-amino-1-((2S,4S,5R)-4-hydroxy-5-(hydroxymethyl)tetrahydrofuran-2-yl)-2-oxo-1,2-dihydropyrimidin-5-yl)propyl)(((2R,3S,4R,5R)-5-(6-amino-9H-purin-9-yl)-3,4-dihydroxytetrahydrofuran-2-yl)methyl)amino)butanoic acid]
15.4 ± 6.2 µM | Nc1nc(=O)n(C2C[C@H](O)[C@@H](CO)O2)cc1SCCN(CC[C@H](N)C(=O)O)C[C@H]1O[C@@H](n2cnc3c(N)ncnc32)[C@H](O)[C@@H]1O (stereo in doubt) [Compound 42, (S)-2-amino-4-((2-((4-amino-1-((2S,4S,5R)-4-hydroxy-5-(hydroxymethyl)tetrahydrofuran-2-yl)-2-oxo-1,2-dihydropyrimidin-5-yl)thio)ethyl)(((2R,3S,4R,5R)-5-(6-amino-9H-purin-9-yl)-3,4-dihydroxytetrahydrofuran-2-yl)methyl)amino)butanoic acid]
1.9 ± 0.1 µM | Nc1nc(=O)n(C2C[C@H](O)[C@@H](CO)O2)cc1CCN(CC[C@H](N)C(=O)O)C[C@H]1O[C@@H](n2cnc3c(N)ncnc32)[C@H](O)[C@@H]1O (stereo in doubt) [Compound 56, (S)-2-amino-4-((2-(4-amino-1-((2S,4S,5R)-4-hydroxy-5-(hydroxymethyl)tetrahydrofuran-2-yl)-2-oxo-1,2-dihydropyrimidin-5-yl)ethyl)(((2R,3S,4R,5R)-5-(6-amino-9H-purin-9-yl)-3,4-dihydroxytetrahydrofuran-2-yl)methyl)amino)butanoic acid]
0.7 ± 0.1 µM | Nc1nc(=O)n([C@H]2C[C@H](O)[C@@H](CO)O2)cc1CN(CC[C@H](N)C(=O)O)C[C@H]1O[C@@H](n2cnc3c(N)ncnc32)[C@H](O)[C@@H]1O [Compound 7, (S)-2-amino-4-(((4-amino-1-((2R,4S,5R)-4-hydroxy-5-(hydroxymethyl)tetrahydrofuran-2-yl)-2-oxo-1,2-dihydropyrimidin-5-yl)methyl)(((2R,3S,4R,5R)-5-(6-amino-9H-purin-9-yl)-3,4-dihydroxytetrahydrofuran-2-yl)methyl)amino)butanoic acid]
2.2 ± 0.5 µM | Nc1nc(=O)n([C@H]2C[C@H](O)[C@@H](CO)O2)cc1CNCC(CC[C@H](N)C(=O)O)C[C@H]1O[C@@H](n2cnc3c(N)ncnc32)[C@H](O)[C@@H]1O (stereo partly drawn) [Compound 70, 2-amino-5-[[[4-amino-1-[(2R,4S,5R)-4-hydroxy-5-(hydroxymethyl)tetrahydrofuran-2-yl]-2-oxo-pyrimidin-5-yl]methylamino]methyl]-6-[(2R,3S,4R,5R)-5-(6-aminopurin-9-yl)-3,4-dihydroxy-tetrahydrofuran-2-yl]hexanoic acid]
6 ± 1.8 µM | NC1=NC(=O)N([C@H]2C[C@H](O)[C@@H](CO)O2)CN1CCCCCN(CC[C@H](N)C(=O)O)C[C@H]1O[C@@H](n2cnc3c(N)ncnc32)[C@H](O)[C@@H]1O [Compound 86, (S)-2-amino-4-((5-(6-amino-3-((2R,4S,5R)-4-hydroxy-5-(hydroxymethyl)tetrahydrofuran-2-yl)-4-oxo-3,4-dihydro-1,3,5-triazin-1(2H)-yl)pentyl)(((2R,3S,4R,5R)-5-(6-amino-9H-purin-9-yl)-3,4-dihydroxytetrahydrofuran-2-yl)methyl)amino)butanoic acid]
